Reference: ChEMBL document CHEMBL4840313, “Bioisosteric replacements of the indole moiety for the development of a potent and selective PI3Kδ inhibitor: Design, synthesis and biological evaluation” (Eur J Med Chem, 2021)

How the values were obtained:
HL-60 = assay: Antiproliferative activity against human HL-60 cells assessed as reduction in cell viability measured after 48 hrs by CCK8 assay; assay type: functional, cell-based; details: HL-60, 48 h
[1] = Antiproliferative activity against human MOLM16 cells assessed as reduction in cell viability measured after 48 hrs by CCK8 assay; assay type: functional, cell-based, MOLM-16; details: MOLM16, 48 h
EOL1 = assay: Antiproliferative activity against human EOL1 cells assessed as reduction in cell viability measured after 48 hrs by CCK8 assay; assay type: functional, cell-based; details: EOL1, 48 h
KG-1 = assay: Antiproliferative activity against human KG-1 cells assessed as reduction in cell viability measured after 48 hrs by CCK8 assay; assay type: functional, cell-based; details: KG-1, 48 h
[2] = Antiproliferative activity against p110 unexpressed human MM1.R cells assessed as reduction in cell viability measured after 48 hrs by CCK8 assay; assay type: functional; details: MM.1R
[3] = Induction of cell cycle arrest in human MOLM16 cells assessed as accumulation at subG1 phase at 1 uM incubated for 24 hrs by propidium iodide /RNase staining based flow cytometry(Rvb =4.02 %); assay type: functional, MOLM-16
[4] = Induction of cell cycle arrest in human MOLM16 cells assessed as accumulation at G1 phase at 1 uM incubated for 24 hrs by propidium iodide /RNase staining based flow cytometry(Rvb =46.8 %); assay type: functional, MOLM-16
[5] = Induction of cell cycle arrest in human MOLM16 cells assessed as accumulation at S phase at 1 uM incubated for 24 hrs by propidium iodide /RNase staining based flow cytometry(Rvb =31.8 %); assay type: functional, MOLM-16
[6] = Induction of cell cycle arrest in human MOLM16 cells assessed as accumulation at G2 phase at 1 uM incubated for 24 hrs by propidium iodide /RNase staining based flow cytometry(Rvb =14.7 %); assay type: functional, MOLM-16
[7] = Induction of cell cycle arrest in human MOLM16 cells assessed as accumulation at subG1 phase at 2 uM incubated for 24 hrs by propidium iodide /RNase staining based flow cytometry(Rvb =4.02 %); assay type: functional, MOLM-16
[8] = Induction of cell cycle arrest in human MOLM16 cells assessed as accumulation at G1 phase at 2 uM incubated for 24 hrs by propidium iodide /RNase staining based flow cytometry(Rvb =46.8 %); assay type: functional, MOLM-16
[9] = Induction of cell cycle arrest in human MOLM16 cells assessed as accumulation at S phase at 2 uM incubated for 24 hrs by propidium iodide /RNase staining based flow cytometry(Rvb =31.8 %); assay type: functional, MOLM-16
[10] = Induction of cell cycle arrest in human MOLM16 cells assessed as accumulation at G2 phase at 2 uM incubated for 24 hrs by propidium iodide /RNase staining based flow cytometry(Rvb =14.7 %); assay type: functional, MOLM-16
[11] = Induction of cell cycle arrest in human MOLM16 cells assessed as accumulation at subG1 phase at 5 uM incubated for 24 hrs by propidium iodide /RNase staining based flow cytometry(Rvb =4.02 %); assay type: functional, MOLM-16
[12] = Induction of cell cycle arrest in human MOLM16 cells assessed as accumulation at G1 phase at 5 uM incubated for 24 hrs by propidium iodide /RNase staining based flow cytometry(Rvb =46.8 %); assay type: functional, MOLM-16
[13] = Induction of cell cycle arrest in human MOLM16 cells assessed as accumulation at S phase at 5 uM incubated for 24 hrs by propidium iodide /RNase staining based flow cytometry(Rvb =31.8 %); assay type: functional, MOLM-16
[14] = Induction of cell cycle arrest in human MOLM16 cells assessed as accumulation at G2 phase at 5 uM incubated for 24 hrs by propidium iodide /RNase staining based flow cytometry(Rvb =14.7 %); assay type: functional, MOLM-16
[15] = Induction of apoptosis in human MOLM16 cells assessed as viable cells at 1 uM incubated for 48 hrs by Annexin V and propidium iodide Staining based assay (reference value: 76.3 %); assay type: functional, MOLM-16; details: read-out: Activity
[16] = Induction of apoptosis in human MOLM16 cells assessed as early apoptotic cells at 1 uM incubated for 48 hrs by Annexin V and propidium iodide Staining based assay (reference value: 16.4 %); assay type: functional, MOLM-16
[17] = Induction of apoptosis in human MOLM16 cells assessed as late apoptotic cells at 1 uM incubated for 48 hrs by Annexin V and propidium iodide Staining based assay (reference value: 6.77 %); assay type: functional, MOLM-16
[18] = Induction of apoptosis in human MOLM16 cells assessed as necrotic cells at 1 uM incubated for 48 hrs by Annexin V and propidium iodide Staining based assay (reference value: 0.44 %); assay type: functional, MOLM-16
[19] = Induction of apoptosis in human MOLM16 cells assessed as viable cells at 2 uM incubated for 48 hrs by Annexin V and propidium iodide Staining based assay (reference value: 76.3 %); assay type: functional, MOLM-16; details: read-out: Activity
[20] = Induction of apoptosis in human MOLM16 cells assessed as early apoptotic cells at 2 uM incubated for 48 hrs by Annexin V and propidium iodide Staining based assay (reference value: 16.4 %); assay type: functional, MOLM-16
[21] = Induction of apoptosis in human MOLM16 cells assessed as late apoptotic cells at 2 uM incubated for 48 hrs by Annexin V and propidium iodide Staining based assay (reference value: 6.77 %); assay type: functional, MOLM-16
[22] = Induction of apoptosis in human MOLM16 cells assessed as necrotic cells at 2 uM incubated for 48 hrs by Annexin V and propidium iodide Staining based assay (reference value: 0.44 %); assay type: functional, MOLM-16
[23] = Induction of apoptosis in human MOLM16 cells assessed as viable cells at 5 uM incubated for 48 hrs by Annexin V and propidium iodide Staining based assay (reference value: 76.3 %); assay type: functional, MOLM-16; details: read-out: Activity
[24] = Induction of apoptosis in human MOLM16 cells assessed as early apoptotic cells at 5 uM incubated for 48 hrs by Annexin V and propidium iodide Staining based assay (reference value: 16.4 %); assay type: functional, MOLM-16
[25] = Induction of apoptosis in human MOLM16 cells assessed as late apoptotic cells at 5 uM incubated for 48 hrs by Annexin V and propidium iodide Staining based assay (reference value: 6.77 %); assay type: functional, MOLM-16
[26] = Induction of apoptosis in human MOLM16 cells assessed as necrotic cells at 5 uM incubated for 48 hrs by Annexin V and propidium iodide Staining based assay (reference value: 0.44 %); assay type: functional, MOLM-16
[27] = Half life in Sprague-Dawley rat at 2 mg/kg, iv; assay type: ADME, organism-based; details: in vivo
[28] = Half life in Sprague-Dawley rat at 10 mg/kg, po; assay type: ADME, organism-based; details: in vivo
[29] = Volume of distribution in steady state in Sprague-Dawley rat at 2 mg/kg, iv; assay type: ADME, organism-based; details: in vivo
[30] = AUC (0 to t) in Sprague-Dawley rat at 2 mg/kg, iv; assay type: ADME, organism-based; set-up: dose 2 mg/kg; details: in vivo
[31] = AUC (0 to infinity) in Sprague-Dawley rat at 2 mg/kg, iv; assay type: ADME, organism-based; set-up: time infinity, route intravenous, dose 2 mg/kg; details: in vivo
[32] = MRT (0 to infinity) in Sprague-Dawley rat at 2 mg/kg, iv; assay type: ADME, organism-based; details: in vivo
[33] = Tmax in Sprague-Dawley rat at 10 mg/kg, po; assay type: ADME, organism-based; details: in vivo
[34] = Cmax in Sprague-Dawley rat at 10 mg/kg, po; assay type: ADME, organism-based; set-up: route oral, dose 10 mg/kg; details: in vivo
[35] = AUC (0 to t) in Sprague-Dawley rat at 10 mg/kg, po; assay type: ADME, organism-based; set-up: dose 10 mg/kg; details: in vivo
[36] = AUC (0 to infinity) in Sprague-Dawley rat at 10 mg/kg, po; assay type: ADME, organism-based; set-up: route oral, time infinity, dose 10 mg/kg; details: in vivo
[37] = Oral bioavailability in Sprague-Dawley rat at 10 mg/kg; assay type: ADME, organism-based; details: in vivo
[38] = Antitumor activity against human MOLM16 cells xenografted in BALB/c mouse assessed as tumor growth inhibition at 20 mg/kg, po administered daily for 14 days; assay type: functional, MOLM-16; details: 336 h, time 14 day, read-out: TGI
[39] = Antitumor activity against human MOLM16 cells xenografted in BALB/c mouse assessed as tumor growth inhibition at 40 mg/kg, po administered daily for 14 days; assay type: functional, MOLM-16; details: 336 h, time 14 day, read-out: TGI
[40] = Toxicity in BALB/c nude mouse xenografted with human MOLM16 cells assessed as change in body weight at 20 to 40 mg/kg, po administered once daily for 14 days; assay type: organism-based; details: in vivo, 336 h, dose 20-40 mg/kg, time 14 day
[41] = Acute toxicity in ICR mouse assessed as survival at 90 mg/kg, po administered for 7 days and observed for 7 days; assay type: organism-based; details: in vivo, 168 h, time 7 day
[42] = Acute toxicity in ICR mouse assessed as behavioral changes at 90 mg/kg, po administered for 7 days and observed for 7 days; assay type: organism-based; details: in vivo, 168 h, time 7 day
[43] = Acute toxicity in ICR mouse assessed as damage in spleen at 90 mg/kg, po measured after 7 days by H&E staining based immunohistochemistry; assay type: organism-based; details: in vivo, 168 h, time 7 day
[44] = Acute toxicity in ICR mouse assessed as damage in kidney at 90 mg/kg, po measured after 7 days by H&E staining based immunohistochemistry; assay type: organism-based; details: in vivo, 168 h, time 7 day
[45] = Acute toxicity in ICR mouse assessed as damage in lung at 90 mg/kg, po measured after 7 days by H&E staining based immunohistochemistry; assay type: organism-based; details: in vivo, 168 h, time 7 day
[46] = Acute toxicity in ICR mouse assessed as damage in liver at 90 mg/kg, po measured after 7 days by H&E staining based immunohistochemistry; assay type: organism-based; details: in vivo, 168 h, time 7 day
[47] = Acute toxicity in ICR mouse assessed as damage in heart at 90 mg/kg, po measured after 7 days by H&E staining based immunohistochemistry; assay type: organism-based; details: in vivo, 168 h, time 7 day

Question: Which IC50 (HL-60) does the source give for `O=S(=O)(Nc1cc(-c2cnc3[nH]ncc3c2)cnc1Cl)c1ccccc1` here?
Answer: 2250 nM

Question: What about the IC50 [1] of the same compound?
Answer: 870 nM

Question: What about the IC50 (EOL1) of the same compound?
Answer: 2820 nM

Question: What about the IC50 (KG-1) of the same compound?
Answer: 5820 nM

Question: What about the IC50 [2] of the same compound?
Answer: 23100 nM

Question: What about the Activity [3] of the same compound?
Answer: 3.5%

Question: What about the Activity [4] of the same compound?
Answer: 54.9%

Question: What about the Activity [5] of the same compound?
Answer: 31.1%

Question: What about the Activity [6] of the same compound?
Answer: 11.8%

Question: What about the Activity [7] of the same compound?
Answer: 3.27%

Question: And the Activity [8]?
Answer: 56.7%

Question: And the Activity [9]?
Answer: 28.6%

Question: What about the Activity [10] of the same compound?
Answer: 10.8%

Question: What about the Activity [11] of the same compound?
Answer: 11.1%

Question: What about the Activity [12] of the same compound?
Answer: 49.2%

Question: What about the Activity [13] of the same compound?
Answer: 30.1%

Question: What about the Activity [14] of the same compound?
Answer: 8.07%

Question: And the viability at 1 µM [15]?
Answer: 69.8%

Question: And the Activity [16]?
Answer: 16%

Question: What about the Activity [17] of the same compound?
Answer: 13.6%

Question: And the Activity [18]?
Answer: 1.6%

Question: And the viability at 2 µM [19]?
Answer: 57.8%

Question: What about the Activity [20] of the same compound?
Answer: 24.6%

Question: And the Activity [21]?
Answer: 16.1%

Question: And the Activity [22]?
Answer: 1.47%

Question: And the viability at 5 µM [23]?
Answer: 10.7%

Question: And the Activity [24]?
Answer: 46.1%

Question: And the Activity [25]?
Answer: 42.6%

Question: What about the Activity [26] of the same compound?
Answer: 0.6%

Question: And the half-life [27]?
Answer: 7.68 h

Question: And the half-life [28]?
Answer: 3.74 h

Question: And the Vdss [29]?
Answer: 2.12 L/kg

Question: What about the AUC(0-t) [30] of the same compound?
Answer: 10200 ng·h/mL

Question: And the AUC(0-inf) [31]?
Answer: 10500 ng·h/mL

Question: And the MRT [32]?
Answer: 3.12 h

Question: What about the Tmax [33] of the same compound?
Answer: 4 h

Question: What about the Cmax [34] of the same compound?
Answer: 1100 ng/mL

Question: And the AUC(0-t) [35]?
Answer: 9040 ng·h/mL

Question: What about the AUC(0-inf) [36] of the same compound?
Answer: 9220 ng·h/mL

Question: And the bioavailability [37]?
Answer: 17.6%

Question: What about the inhibition in vivo at 20 mg/kg [38] of the same compound?
Answer: 31%

Question: And the inhibition in vivo at 40 mg/kg [39]?
Answer: 49%

Question: And the Activity [40]?
Answer: Non-Toxic

Question: And the Activity [41]?
Answer: Non-Toxic

Question: What about the Activity [42] of the same compound?
Answer: Non-Toxic

Question: And the Activity [43]?
Answer: Non-Toxic

Question: And the Activity [44]?
Answer: Non-Toxic

Question: What about the Activity [45] of the same compound?
Answer: Non-Toxic

Question: What about the Activity [46] of the same compound?
Answer: Non-Toxic

Question: What about the Activity [47] of the same compound?
Answer: Non-Toxic
